In patent US20190134005A1 (BioMarin Pharmaceutical Inc., priority 2016, published 2019):

Each compound was assayed against T1, human CGT (Homo sapiens, UniProt Q16880) (assay: Assay 1: CGT Enzymatic Assay (RapidFire/MS/MS, 0.01% Tween 80)). Conditions: Table 1, Compounds of Formula (I) and Formula (II); CGT enzymatic assay, C6-NBD-dihydro-galactosylceramide readout; read-out: IC50.
T1 sequence (Q16880 21-541): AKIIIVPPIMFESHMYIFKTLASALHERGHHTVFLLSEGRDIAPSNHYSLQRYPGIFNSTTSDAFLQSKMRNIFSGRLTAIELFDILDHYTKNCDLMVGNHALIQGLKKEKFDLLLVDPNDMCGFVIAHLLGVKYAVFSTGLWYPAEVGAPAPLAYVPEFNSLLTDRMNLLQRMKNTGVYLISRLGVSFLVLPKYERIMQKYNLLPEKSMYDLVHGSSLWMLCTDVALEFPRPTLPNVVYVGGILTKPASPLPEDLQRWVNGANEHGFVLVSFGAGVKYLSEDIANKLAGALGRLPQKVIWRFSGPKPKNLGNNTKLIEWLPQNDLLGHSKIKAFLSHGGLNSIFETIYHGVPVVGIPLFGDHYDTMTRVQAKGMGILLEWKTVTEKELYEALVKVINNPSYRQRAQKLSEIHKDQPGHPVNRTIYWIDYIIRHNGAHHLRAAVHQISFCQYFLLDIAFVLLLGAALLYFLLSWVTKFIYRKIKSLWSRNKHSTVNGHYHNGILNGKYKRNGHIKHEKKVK
Type: biochemical

`Cc1ccc(N2C(=O)N(c3ccc(Cl)cc3)C3(COC3)C2(O)c2cccc(OC(F)(F)F)c2)cc1` (stereo not shown) [Compound 299, 5-(4-chlorophenyl)-8-hydroxy-7-(p-tolyl)-8-(3-(trifluoromethoxy)phenyl)-2-oxa-5,7-diazaspiro[3.4]octan-6-one] and `O=C1N(c2ccc(Cl)cc2)C2(CC(F)(F)C2)C(O)(c2cccc(OC(F)(F)F)c2)N1c1ccc(Cl)cc1` (stereo not shown) [Compound 304, 5,7-bis(4-chlorophenyl)-2,2-difluoro-8-hydroxy-8-(3-(trifluoromethoxy)phenyl)-5,7-diazaspiro[3.4]octan-6-one] cannot be ordered by IC50: less than 1 µM for the first, less than 1 µM for the second.

First: N#Cc1cccc(C2(O)N(c3ccc(Cl)cc3)C(=O)N(c3ccc(Cl)cc3)C23CNC3)c1 (stereo not shown) [Compound 300, 3-(5,7-bis(4-chlorophenyl)-8-hydroxy-6-oxo-2,5,7-triazaspiro[3.4]octan-8-yl)benzonitrile 2,2,2-trifluoroacetate]
Second: CN1CC2(C1)N(c1ccc(Cl)cc1)C(=O)N(c1ccc(Cl)cc1)C2(O)c1cccc(C#N)c1 (stereo not shown) [Compound 301, 3-(5,7-bis(4-chlorophenyl)-8-hydroxy-2-methyl-6-oxo-2,5,7-triazaspiro[3.4]octan-8-yl)benzonitrile 2,2,2-trifluoroacetate]
The IC50 of the first is higher: 1 to 10 µM for the first, less than 1 µM for the second.

`O=C1N(c2ccc(C(F)(F)F)cc2)C2(COC2)C(O)(c2cccc(OC(F)(F)F)c2)N1c1ccc(C(F)(F)F)cc1` (stereo not shown) [Compound 302, 8-hydroxy-8-(3-(trifluoromethoxy)phenyl)-5,7-bis(4-(trifluoromethyl)phenyl)-2-oxa-5,7-diazaspiro[3.4]octan-6-one] and `N#Cc1cccc(C2(O)N(c3ccc(C(F)(F)F)cc3)C(=O)N(c3ccc(C(F)(F)F)cc3)C23COC3)c1` (stereo not shown) [Compound 303, 3-(8-hydroxy-6-oxo-5,7-bis(4-(trifluoromethyl)phenyl)-2-oxa-5,7-diazaspiro[3.4]octan-8-yl)benzonitrile] cannot be ordered by IC50: less than 1 µM for the first, less than 1 µM for the second.

`N#Cc1cccc(C2(O)N(c3ccc(Cl)cc3)C(=O)N(c3ccc(Cl)cc3)C23CC(F)(F)C3)c1` (stereo not shown) [Compound 305, 3-(5,7-bis(4-chlorophenyl)-2,2-difluoro-8-hydroxy-6-oxo-5,7-diazaspiro[3.4]octan-8-yl)benzonitrile] and `N#Cc1cc(C#N)cc(C2(O)N(c3ccc(Cl)cc3)C(=O)N(c3ccc(Cl)cc3)C23COC3)c1` (stereo not shown) [Compound 306, 5-(5,7-bis(4-chlorophenyl)-8-hydroxy-6-oxo-2-oxa-5,7-diazaspiro[3.4]octan-8-yl)isophthalonitrile] cannot be ordered by IC50: less than 1 µM for the first, less than 1 µM for the second.

Same assay, conditions: Table 1, Compounds of Formula (I) and Formula (II); CGT enzymatic assay; read-out: IC50

First: O=C1N(c2ccc(Br)cc2)CC(O)(c2ccccc2)N1c1ccc(Br)cc1 (stereo not shown) [Example 1]
Second: OC1(c2ccccc2)CN(c2ccc(Br)cc2)C(=S)N1c1ccc(Br)cc1 (stereo not shown) [Example 26, 1,3-bis(4-bromophenyl)-4-hydroxy-4-phenylimidazolidine-2-thione]
The IC50 of the first is lower: 1 to 10 µM for the first, 50 to 100 µM for the second.

Compared with `CC1(O)CN(c2ccc(Br)cc2)C(=O)N1c1ccc(Br)cc1` (stereo not shown) [Example 2, 1,3-bis(4-bromophenyl)-4-hydroxy-4-methylimidazolidin-2-one], `CCC1(O)CN(c2ccc(Br)cc2)C(=O)N1c1ccc(Br)cc1` (stereo not shown) [Example 4, 1,3-bis(4-bromophenyl)-4-ethyl-4-hydroxyimidazolidin-2-one] is lower in IC50: greater than 50 µM for the first, 10 to 50 µM for the second. The second is the more potent here.

First: Cc1c(-c2cccc(C#N)c2)n(-c2ccc(Cl)cc2)c(=O)n1-c1ccc(Cl)cc1 [Example 3]
Second: CCCc1c(C(=O)c2ccccc2)n(-c2ccc(Cl)cc2)c(=O)n1-c1ccc(Cl)cc1 [Example 27, 4-benzoyl-1,3-bis(4-chlorophenyl)-5-propyl-1,3-dihydro-2H-imidazol-2-one]
The IC50 of the first is lower: less than 1 µM for the first, 10 to 50 µM for the second. The first is the more potent here.

First: O=C1N(c2ccc(Br)cc2)CC(O)(c2ccc(Cl)s2)N1c1ccc(Br)cc1 (stereo not shown) [Example 5, 1,3-bis(4-bromophenyl)-4-(5-chlorothiophen-2-yl)-4-hydroxyimidazolidin-2-one]
Second: O=C1N(c2ccc(Br)cc2)CC(O)(c2cccs2)N1c1ccc(Br)cc1 (stereo not shown) [Example 7, 1,3-bis(4-bromophenyl)-4-hydroxy-4-(thiophen-2-yl)imidazolidin-2-one]
The IC50 of the first is higher: 10 to 50 µM for the first, 1 to 10 µM for the second. The second is the more potent here.

`CCCCC1(O)CN(c2ccc(Br)cc2)C(=O)N1c1ccc(Br)cc1` (stereo not shown) [Example 6, 1,3-bis(4-bromophenyl)-4-butyl-4-hydroxyimidazolidin-2-one] and `Cc1ccccc1C1(O)CN(c2ccc(Br)cc2)C(=O)N1c1ccc(Br)cc1` (stereo not shown) [Example 14, 1,3-bis(4-bromophenyl)-4-hydroxy-4-(o-tolyl)imidazolidin-2-one] cannot be ordered by IC50: greater than 50 µM for the first, greater than 50 µM for the second.

`O=C1N(c2ccc(Br)cc2)CC(O)(c2cc3ccccc3s2)N1c1ccc(Br)cc1` (stereo not shown) [Example 8, 4-(benzo[b]thiophen-2-yl)-1,3-bis(4-bromophenyl)-4-hydroxyimidazolidin-2-one] and `O=C1N(c2ccc(Br)cc2)CC(O)(c2nc3ccccc3s2)N1c1ccc(Br)cc1` (stereo not shown) [Example 10, 4-(benzo[d]thiazol-2-yl)-1,3-bis(4-bromophenyl)-4-hydroxyimidazolidin-2-one] cannot be ordered by IC50: 50 to 100 µM for the first, greater than 50 µM for the second.

First: O=C1N(c2ccc(Br)cc2)CC(O)(c2ccccn2)N1c1ccc(Br)cc1 (stereo not shown) [Example 9, 1,3-bis(4-bromophenyl)-4-hydroxy-4-(pyridin-2-yl)imidazolidin-2-one]
Second: Cc1cccc(C2(O)CN(c3ccc(Br)cc3)C(=O)N2c2ccc(Br)cc2)c1 (stereo not shown) [Example 16, 1,3-bis(4-bromophenyl)-4-hydroxy-4-(m-tolyl)imidazolidin-2-one]
The IC50 of the first is higher: greater than 50 µM for the first, 1 to 10 µM for the second. The second is the more potent here.

First: O=C1N(c2ccc(F)cc2)CC(O)(c2ccccc2)N1c1ccc(F)cc1 (stereo not shown) [Example 11, 1,3-bis(4-fluorophenyl)-4-hydroxy-4-phenylimidazolidin-2-one]
Second: O=C1N(c2ccc(Cl)cc2)CC(O)(c2ccccc2)N1c1ccc(Cl)cc1 (stereo not shown) [Example 12, 1,3-bis(4-chlorophenyl)-4-hydroxy-4-phenylimidazolidin-2-one]
The IC50 of the first is higher: greater than 50 µM for the first, 1 to 10 µM for the second. The second is the more potent here.

`C[C@@H]1N(c2ccc(Br)cc2)C(=O)N(c2ccc(Br)cc2)C1(O)c1ccccc1` (stereo partly shown) [Example 13-1] and `CC1N(c2ccc(Br)cc2)C(=O)N(c2ccc(Br)cc2)C1(O)c1ccccc1` (stereo not shown) [Example 13] cannot be ordered by IC50: less than 1 µM for the first, less than 1 µM for the second.

First: O=C1N(c2ccc(C(F)(F)F)cc2)CC(O)(c2ccccc2)N1c1ccc(C(F)(F)F)cc1 (stereo not shown) [Example 15, 4-hydroxy-4-phenyl-1,3-bis(4-(trifluoromethyl)phenyl)imidazolidin-2-one]
Second: Cc1ccc(N2CC(O)(c3ccccc3)N(c3ccc(C)cc3)C2=O)cc1 (stereo not shown) [Example 17, 4-hydroxy-4-phenyl-1,3-di-p-tolylimidazolidin-2-one]
The IC50 of the first is higher: greater than 50 µM for the first, 1 to 10 µM for the second. The second is the more potent here.

Compared with `O=c1n(-c2ccc(Br)cc2)c2c(n1-c1ccc(Br)cc1)CCCC2` [Example 18], `CCCc1c(CCC)n(-c2ccc(Br)cc2)c(=O)n1-c1ccc(Br)cc1` [Example 22, 1,3-bis(4-bromophenyl)-4,5-dipropyl-1,3-dihydro-2H-imidazol-2-one] is higher in IC50: 10 to 50 µM for the first, greater than 50 µM for the second. The first is the more potent here.

First: O=C1N(c2ccc(Br)cc2)CC(O)(c2ccc(Cl)cc2)N1c1ccc(Br)cc1 (stereo not shown) [Example 19, 1,3-bis(4-bromophenyl)-4-(4-chlorophenyl)-4-hydroxyimidazolidin-2-one]
Second: Cc1ccc(C2(O)CN(c3ccc(Br)cc3)C(=O)N2c2ccc(Br)cc2)cc1 (stereo not shown) [Example 23, 1,3-bis(4-bromophenyl)-4-hydroxy-4-(p-tolyl)imidazolidin-2-one]
The IC50 of the first is lower: 10 to 50 µM for the first, greater than 50 µM for the second. The first is the more potent here.

First: O=C1N(c2ccccc2)CC(O)(c2ccccc2)N1c1ccc(Br)cc1 (stereo not shown) [Example 20, 3-(4-bromophenyl)-4-hydroxy-1,4-diphenylimidazolidin-2-one]
Second: O=C1N(c2ccc(Br)cc2)CC(O)(c2ccccc2)N1c1ccccc1 (stereo not shown) [Example 28, 1-(4-bromophenyl)-4-hydroxy-3,4-diphenylimidazolidin-2-one]
The IC50 of the first is higher: greater than 50 µM for the first, 10 to 50 µM for the second.

`O=C1N(c2ccccc2)CC(O)(c2ccccc2)N1c1ccccc1` (stereo not shown) [Example 21, 4-hydroxy-1,3,4-triphenylimidazolidin-2-one] and `O=C1N(c2ccc(Br)cc2)CC(O)(c2ccc3ccccc3c2)N1c1ccc(Br)cc1` (stereo not shown) [Example 24, 1,3-bis(4-bromophenyl)-4-hydroxy-4-(naphthalen-2-yl)imidazolidin-2-one] cannot be ordered by IC50: greater than 50 µM for the first, greater than 50 µM for the second.

`CCC1N(c2ccc(Br)cc2)C(=O)N(c2ccc(Br)cc2)C1(O)c1ccccc1` (stereo not shown) [Example 25, 1,3-bis(4-bromophenyl)-5-ethyl-4-hydroxy-4-phenylimidazolidin-2-one] and `CC[C@@H]1N(c2ccc(Br)cc2)C(=O)N(c2ccc(Br)cc2)C1(O)c1ccccc1` (stereo partly shown) [Example 25-1] cannot be ordered by IC50: less than 1 µM for the first, less than 1 µM for the second.

`CC[C@H]1N(c2ccc(Br)cc2)C(=O)N(c2ccc(Br)cc2)C1(O)c1ccccc1` (stereo partly shown) [Example 25-2] and `Cc1cccc(C2(O)[C@H](C)N(c3ccc(Br)cc3)C(=O)N2c2ccc(Br)cc2)c1` (stereo partly shown) [Example 29-1] cannot be ordered by IC50: less than 1 µM for the first, less than 1 µM for the second.

Compared with `Cc1cccc(C2(O)[C@@H](C)N(c3ccc(Br)cc3)C(=O)N2c2ccc(Br)cc2)c1` (stereo partly shown) [Example 29-2], `COc1cccc(C2(O)CN(c3ccc(Br)cc3)C(=O)N2c2ccc(Br)cc2)c1` (stereo not shown) [Example 30, 1,3-bis(4-bromophenyl)-4-hydroxy-4-(3-methoxyphenyl)imidazolidin-2-one] is higher in IC50: less than 1 µM for the first, 1 to 10 µM for the second.

For `O=C1N(c2ccc(Br)cc2)CC(O)(c2cccc(C(F)(F)F)c2)N1c1ccc(Br)cc1` (stereo not shown) [Example 31, 1,3-bis(4-bromophenyl)-4-hydroxy-4-(3-(trifluoromethyl)phenyl)imidazolidin-2-one], the IC50 was less than 1 µM.
